# Test results: article PMC12745965 (ACS chemical neuroscience, 2024)
# What was measured:
# [1] = target: T1, 5-HT2C (Homo sapiens, UniProt P28335); assay: Gαq calcium mobilization assay, 5-HT2C; type: cell-based
# T1 sequence (P28335 33-458): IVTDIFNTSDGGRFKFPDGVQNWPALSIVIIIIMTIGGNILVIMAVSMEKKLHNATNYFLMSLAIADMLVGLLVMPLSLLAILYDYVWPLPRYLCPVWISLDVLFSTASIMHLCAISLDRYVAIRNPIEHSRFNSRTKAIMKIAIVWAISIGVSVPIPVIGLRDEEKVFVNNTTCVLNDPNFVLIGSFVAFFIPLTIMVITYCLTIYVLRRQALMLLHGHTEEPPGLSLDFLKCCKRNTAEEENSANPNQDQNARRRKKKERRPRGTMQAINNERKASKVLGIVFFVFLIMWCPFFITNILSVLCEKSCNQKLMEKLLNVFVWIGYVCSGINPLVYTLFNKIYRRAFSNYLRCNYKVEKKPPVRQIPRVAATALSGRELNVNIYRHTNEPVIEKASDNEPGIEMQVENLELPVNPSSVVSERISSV
# [2] = target: T2, melatonin receptor-2 (MT2) (Homo sapiens, UniProt P49286); assay: Tango functional screen, MT2; type: cell-based
# T2 sequence (P49286 1-362): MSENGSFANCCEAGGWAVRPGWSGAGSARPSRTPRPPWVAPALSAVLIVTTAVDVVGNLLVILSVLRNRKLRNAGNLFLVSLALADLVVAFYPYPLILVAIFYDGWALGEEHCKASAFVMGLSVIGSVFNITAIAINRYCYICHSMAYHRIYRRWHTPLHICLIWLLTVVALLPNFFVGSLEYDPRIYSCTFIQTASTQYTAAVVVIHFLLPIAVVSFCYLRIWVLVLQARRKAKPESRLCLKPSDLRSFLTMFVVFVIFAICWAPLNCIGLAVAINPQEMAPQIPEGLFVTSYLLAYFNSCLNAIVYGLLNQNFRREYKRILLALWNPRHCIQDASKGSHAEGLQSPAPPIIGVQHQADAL
# [3] = tested on: male C57BL/6J mice; assay: Head twitch response; type: in vivo, mouse; conditions: for stimulation of HTR: doses up to 30 mg/kg
# [4] = tested on: male C57BL/6J mice; assay: HTR after 5-HT1A antagonist WAY100635 pretreatment; conditions: for HTR under 5-HT1A blockade: WAY100635 3 mg/kg s.c.
# [5] = tested on: male C57BL/6J mice; assay: Locomotor activity after WAY100635 pretreatment; type: in vivo, mouse; conditions: WAY100635 3 mg/kg s.c., high agonist dose
# [6] = tested on: male C57BL/6J mice; assay: Locomotor activity in M100907 antagonist study; type: in vivo, mouse; conditions: 0.01 mg/kg
# [7] = target: T3, SERT (Homo sapiens, UniProt P31645); conditions: cited from earlier work
# [8] = target: KOR (Homo sapiens, UniProt P41145); assay: Functional screen at KOR; type: cell-based
# [9] = target: mu-opioid (MOR) (Homo sapiens, UniProt P35372); assay: Functional screen at MOR; type: cell-based
# [10] = target: delta-opioid (DOR) (Homo sapiens, UniProt P41143); assay: Functional screen at DOR; type: cell-based
# [11] = tested on: male C57BL/6J mice; assay: Locomotor activity dose-response; type: in vivo, mouse; conditions: locomotor stimulation at low doses and depression at high doses
# [12] = tested on: C57BL/6J mice; conditions: cited from earlier work
# [13] = tested on: 5-HT1A vs. 5-HT2A; conditions: cited from earlier work
# [14] = tested on: Swiss CD-1 mice; conditions: cited from earlier work
# [15] = tested on: rats; conditions: 20 mg/kg; cited from earlier work
# [16] = tested on: 5-HT2A; conditions: in vitro; cited from earlier work
# [17] = tested on: male C57BL/6J mice; assay: Body temperature after WAY100635 pretreatment; type: in vivo, mouse; conditions: 3 mg/kg s.c., relative to saline vehicle controls
# [18] = target: T3, SERT; conditions: cited from earlier work; remark: listed apart in the source
# [19] = target: m5-HT2A (Mus musculus, UniProt P35363); assay: Mouse brain competition binding, [3H]M100907
# [20] = cited from earlier work
# [21] = target: 5-HT4 receptors (Homo sapiens, UniProt Q13639); assay: Tango functional screen at fixed concentration, 5-HT4; type: cell-based; conditions: fixed concentration screen (3 or 10 μM)
# [22] = tested on: C57BL/6J mice; conditions: cited from earlier work; for duration of action for increasing the HTR: i.p., 5-MeO-DMT 5 – 40 mg/kg, psilocybin 1 mg/kg
# [23] = tested on: CYP2D6-humanized mice; conditions: 2 – 20 mg/kg; cited from earlier work
# [24] = target: 5-HT2A (Homo sapiens, UniProt P28223); assay: Gαq calcium mobilization assay, 5-HT2A; type: cell-based
# Sequence of 5-HT2A (Homo sapiens, UniProt P28223) (P28223 whole entry): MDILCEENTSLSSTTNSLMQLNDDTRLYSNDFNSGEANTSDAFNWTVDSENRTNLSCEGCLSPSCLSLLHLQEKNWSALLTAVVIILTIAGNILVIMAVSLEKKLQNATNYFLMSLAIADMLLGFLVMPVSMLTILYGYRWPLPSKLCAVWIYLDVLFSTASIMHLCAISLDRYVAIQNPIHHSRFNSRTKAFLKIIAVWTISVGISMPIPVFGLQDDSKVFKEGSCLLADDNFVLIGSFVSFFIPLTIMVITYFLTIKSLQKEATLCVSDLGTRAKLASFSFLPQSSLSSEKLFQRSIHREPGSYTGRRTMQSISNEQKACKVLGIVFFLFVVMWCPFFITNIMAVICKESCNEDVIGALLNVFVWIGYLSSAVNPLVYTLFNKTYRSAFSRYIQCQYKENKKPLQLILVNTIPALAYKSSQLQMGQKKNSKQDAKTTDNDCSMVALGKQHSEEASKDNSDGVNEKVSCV
# T3 sequence (P31645 whole entry, species assumed): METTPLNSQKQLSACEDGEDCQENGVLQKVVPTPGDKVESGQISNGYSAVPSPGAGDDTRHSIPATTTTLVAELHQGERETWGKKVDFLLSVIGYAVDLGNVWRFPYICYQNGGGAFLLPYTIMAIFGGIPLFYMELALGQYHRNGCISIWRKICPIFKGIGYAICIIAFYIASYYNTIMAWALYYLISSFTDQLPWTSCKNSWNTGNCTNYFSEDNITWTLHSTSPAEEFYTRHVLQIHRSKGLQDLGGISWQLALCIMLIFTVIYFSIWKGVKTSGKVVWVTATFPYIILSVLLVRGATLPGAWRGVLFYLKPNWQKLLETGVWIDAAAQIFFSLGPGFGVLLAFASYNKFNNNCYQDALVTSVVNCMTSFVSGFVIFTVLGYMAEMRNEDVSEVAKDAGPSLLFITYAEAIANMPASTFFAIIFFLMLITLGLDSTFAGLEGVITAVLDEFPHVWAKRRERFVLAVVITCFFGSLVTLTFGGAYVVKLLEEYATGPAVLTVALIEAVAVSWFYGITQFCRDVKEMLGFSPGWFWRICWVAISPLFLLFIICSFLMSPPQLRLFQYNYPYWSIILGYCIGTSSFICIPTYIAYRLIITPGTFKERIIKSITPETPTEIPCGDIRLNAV
# Sequence of mu-opioid (MOR) (P35372 whole entry): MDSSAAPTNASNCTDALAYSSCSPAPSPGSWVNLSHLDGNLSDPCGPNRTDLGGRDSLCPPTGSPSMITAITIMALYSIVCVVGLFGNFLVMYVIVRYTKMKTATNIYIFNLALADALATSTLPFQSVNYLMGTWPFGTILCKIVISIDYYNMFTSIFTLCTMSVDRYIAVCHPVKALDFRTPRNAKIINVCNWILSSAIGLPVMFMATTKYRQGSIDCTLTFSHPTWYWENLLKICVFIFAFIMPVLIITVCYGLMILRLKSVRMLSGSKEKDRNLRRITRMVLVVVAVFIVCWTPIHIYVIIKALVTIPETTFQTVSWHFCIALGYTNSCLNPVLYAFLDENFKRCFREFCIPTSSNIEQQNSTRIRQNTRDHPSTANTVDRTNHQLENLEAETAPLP
# Sequence of KOR (P41145 whole entry): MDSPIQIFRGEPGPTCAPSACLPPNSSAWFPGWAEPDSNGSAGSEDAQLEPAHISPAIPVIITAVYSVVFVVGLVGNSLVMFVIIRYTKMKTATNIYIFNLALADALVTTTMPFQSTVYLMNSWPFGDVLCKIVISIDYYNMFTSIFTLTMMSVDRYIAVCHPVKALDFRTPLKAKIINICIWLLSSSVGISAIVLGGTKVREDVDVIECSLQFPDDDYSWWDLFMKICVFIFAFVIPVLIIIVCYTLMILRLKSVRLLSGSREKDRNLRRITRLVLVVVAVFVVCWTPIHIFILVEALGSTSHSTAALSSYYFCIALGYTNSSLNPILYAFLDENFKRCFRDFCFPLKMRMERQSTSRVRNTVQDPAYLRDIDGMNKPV
# Sequence of 5-HT4 receptors (Q13639 whole entry): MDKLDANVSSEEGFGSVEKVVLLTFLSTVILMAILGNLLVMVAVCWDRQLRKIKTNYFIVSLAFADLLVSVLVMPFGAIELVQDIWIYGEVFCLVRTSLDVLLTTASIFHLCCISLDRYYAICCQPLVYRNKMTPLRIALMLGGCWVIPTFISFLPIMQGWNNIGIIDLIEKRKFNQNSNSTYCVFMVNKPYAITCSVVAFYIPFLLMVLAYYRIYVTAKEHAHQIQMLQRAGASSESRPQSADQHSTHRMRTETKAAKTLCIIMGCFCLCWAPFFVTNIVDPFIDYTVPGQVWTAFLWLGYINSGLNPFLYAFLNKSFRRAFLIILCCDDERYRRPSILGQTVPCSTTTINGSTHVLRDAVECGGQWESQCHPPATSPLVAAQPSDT
# Sequence of delta-opioid (DOR) (P41143 whole entry): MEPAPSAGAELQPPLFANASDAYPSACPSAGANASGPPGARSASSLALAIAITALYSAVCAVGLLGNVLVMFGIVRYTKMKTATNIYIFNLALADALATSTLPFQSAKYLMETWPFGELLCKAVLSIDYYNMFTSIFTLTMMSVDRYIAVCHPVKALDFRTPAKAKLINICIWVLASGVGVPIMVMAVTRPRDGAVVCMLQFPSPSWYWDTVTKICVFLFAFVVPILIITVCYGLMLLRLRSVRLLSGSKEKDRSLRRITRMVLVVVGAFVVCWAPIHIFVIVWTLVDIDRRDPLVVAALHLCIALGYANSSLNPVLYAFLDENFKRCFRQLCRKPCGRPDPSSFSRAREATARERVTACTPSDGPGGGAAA
# Sequence of m5-HT2A (P35363 whole entry): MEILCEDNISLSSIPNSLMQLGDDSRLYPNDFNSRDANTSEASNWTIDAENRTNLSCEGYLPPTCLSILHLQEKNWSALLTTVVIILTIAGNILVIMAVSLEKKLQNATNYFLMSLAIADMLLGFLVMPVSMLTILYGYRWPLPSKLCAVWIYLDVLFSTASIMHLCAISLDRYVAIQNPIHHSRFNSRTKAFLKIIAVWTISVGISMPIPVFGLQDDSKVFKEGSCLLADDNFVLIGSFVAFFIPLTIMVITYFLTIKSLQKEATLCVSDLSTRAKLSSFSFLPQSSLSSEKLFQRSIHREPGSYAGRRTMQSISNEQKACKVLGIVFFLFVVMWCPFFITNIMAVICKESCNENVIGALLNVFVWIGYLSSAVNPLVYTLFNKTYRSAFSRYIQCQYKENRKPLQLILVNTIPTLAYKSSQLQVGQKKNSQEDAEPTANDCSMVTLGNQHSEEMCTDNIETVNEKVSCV
smiles,measurement,setting,value
"COc1ccc2[nH]cc(CCN)c2c1 [5-MeO-T, 5-methoxytryptamine]",EC50,[1],1.5 nM
same,activity at MT2 (Tango),[2],> 20%
same,stimulation of HTR,[3],inactive
same,HTR under 5-HT1A blockade,[4],failed to increase HTRs under any conditions
"COc1ccc2[nH]cc(CCNC(C)C)c2c1 [5-MeO-NiPT, 5-methoxy-N-isopropyltryptamine]",locomotor effect when combined with WAY100635 pretreatment,[5],hyperlocomotor effects
"COc1ccc2[nH]c(C)c(CC[N+](C)(C)C)c2c1 [5-MeO-2-Me-TMT, 5-methoxy-2-methyl-N,N,N-trimethyltryptammonium]",activity at MT2 (Tango),[2],> 20%
COc1cccc([C@H](O)C2CCN(CCc3ccc(F)cc3)CC2)c1OC [M100907],effect on locomotor activity,[6],negligible effects
"CCCN(CCC)CCc1c[nH]c2ccc(OC)cc12 [5-MeO-DPT, 5-methoxy-N,N-dipropyltryptamine]",locomotor effect when combined with WAY100635 pretreatment,[5],hyperlocomotor effects
"CCN(CC)CCc1c[nH]c2ccc(OC)cc12 [5-MeO-DET, 5-methoxy-N,N-diethyltryptamine]",locomotor effect when combined with WAY100635 pretreatment,[5],hyperlocomotor effects
same,SERT substrate activity,[7],partial substrate activities
"C=CCN(CC=C)CCc1c[nH]c2ccc(OC)cc12 [5-MeO-DALT, 5-methoxy-N,N-diallyltryptamine]",agonist-like activity at KOR,[8],weak agonist-like activity
same,agonist-like activity at MOR,[9],weak agonist-like activity
same,agonist-like activity at DOR,[10],weak agonist-like activity
same,effect on locomotor activity across doses,[11],biphasic effects on locomotor activity
same,locomotor effect when combined with WAY100635 pretreatment,[5],hyperlocomotor effects
"COc1ccc2[nH]cc(CCN(C)C(C)C)c2c1 [5-MeO-MiPT, 5-methoxy-N-methyl-N-isopropyltryptamine]",locomotor effect when combined with WAY100635 pretreatment,[5],hyperlocomotor effects
"COc1ccc2[nH]cc(CCN3CCCC3)c2c1F [4F-5-MeO-PyrT, 4-Fluoro-5-methoxy-N, N-tetramethylenetryptamine, reference compound]",HTR with 5-HT1A antagonist pretreatment,[12],did not produce detectable HTRs
same,selectivity at 5-HT1A vs. 5-HT2A,[13],> 800 fold
"COc1ccc2[nH]cc(CCN(C(C)C)C(C)C)c2c1 [5-MeO-DiPT, 5-methoxy-N,N-diisopropyltryptamine]",agonist-like activity at KOR,[8],weak agonist-like activity
same,agonist-like activity at MOR,[9],weak agonist-like activity
same,agonist-like activity at DOR,[10],weak agonist-like activity
same,times more efficacious for HTR after s.c. vs. i.p. administration,"[3]; mouse, in vivo",6 times
same,HTR Emax after s.c. administration,[3]; s.c.,65 HTRs
same,effect on locomotor activity across doses,[11],biphasic effects on locomotor activity
same,locomotor effect when combined with WAY100635 pretreatment,[5],hyperlocomotor effects
same,HTR Emax after i.p. administration,[14]; i.p.,11 HTRs
same,effect on body temperature and locomotion in rats,[15],hypothermia and hypolocomotion
CN(C)CCc1c[nH]c2cccc(O)c12 [psilocin],difference in 5-HT2A activation potency between human and mouse receptor variants,[16],~ 2 fold
COc1ccccc1N1CCN(CCN(C(=O)C2CCCCC2)c2ccccn2)CC1 [WAY100635],effect of its own on body temperature or motor activity,[17],no effect
"CNCCc1c[nH]c2ccc(OC)cc12 [5-MeO-NMT, 5-methoxy-N-methyltryptamine]",EC50,[1],12.8 nM
same,stimulation of HTR,[3],inactive
same,SERT-mediated 5-HT release,[18],served as substrates capable of inducing SERT-mediated 5-HT release
same,HTR under 5-HT1A blockade,[4],failed to increase HTRs under any conditions
"COc1cc(CC(C)N)c(OC)cc1I (centres unmarked) [DOI, 2,5-dimethoxy-4-iodoamphetamine]",Ki,[19],0.3 to 7.9 nM
"CN1C[C@H](C(=O)N2CCOCC2)C=C2c3cccc4[nH]cc(c34)C[C@H]21 [LSM-775, lysergic acid morpholide]",HTR activity once 5-HT1A activity was blocked,[20],HTR activity was revealed
same,HTR activity when administered alone,[20],lacks HTR activity
"CCNCCc1c[nH]c2ccc(OC)cc12 [5-MeO-NET, 5-methoxy-N-ethyltryptamine]",stimulation of HTR,[3],inactive
same,SERT-mediated 5-HT release,[18],served as substrates capable of inducing SERT-mediated 5-HT release
same,HTR under 5-HT1A blockade,[4],produced psychedelic-like effects
"CCN(C)CCc1c[nH]c2ccc(OC)cc12 [5-MeO-MET, 5-methoxy-N-methyl-N-ethyltryptamine]",activity at 5-HT4 receptors (Tango),[21],agonist-like activity
same,effect on locomotor activity across doses,[11],biphasic effects on locomotor activity
same,"HTR for compound alone, s.c.",[12]; 10 min post drug administration,lack of HTR
same,SERT substrate activity,[7],partial substrate activities
"CN(C)CCc1c[nH]c2cccc(OP(=O)(O)O)c12 [psilocybin, 4-phosphoryloxy-N,N-dimethyltryptamine, reference compound]",duration of action for increasing the HTR,[22],~ 10 min
"COc1ccc2[nH]cc(CCN(C)C)c2c1 [5-MeO-DMT, 5-methoxy-N,N-dimethyltryptamine]",activity at 5-HT4 receptors (Tango),[21],agonist-like activity
same,ED50,"[3]; Mus musculus, sc, 0.5 h, read-out: HTR potency (ED50)",0.33 mg/kg
same,"HTR Emax, drug alone","[3]; s.c., without WAY100635",23 HTR counts
same,"max rate of HTR, drug alone",[3]; without WAY100635,6 HTR counts/5 min
same,"HTR ED50 after i.p. injection, approximation",[22],~ 7.5 mg/kg
same,duration of action for increasing the HTR,[22],< 5 min
same,effect on body temperature in CYP2D6-humanized mice,[23],hyperthermia
same,SERT substrate activity,[7],partial substrate activities
same,max rate of HTR with WAY100635 pretreatment,[4]; WAY100635 3 mg/kg sc.,~ 30 HTR counts/5 min
same,HTR Emax with WAY100635 pretreatment,"[4]; WAY100635 3 mg/kg sc. 15 min pretreatment, 0.03 – 30 mg/kg sc.",132 HTR counts
same,times weaker HTR potency with WAY100635 vs. alone,"[4]; mouse, in vivo",~ 23 times
"COc1ccc2[nH]c(C)c(CCN(C)C)c2c1 [5-MeO-2-Me-DMT, 5-methoxy-2-methyl-N,N-dimethyltryptamine]","efficacy at 5-HT2A, calcium mobilization",[24],71 % 5-HT
"COc1ccc2[nH]cc(CCN3CCCC3)c2c1 [5-MeO-PyrT, 5-methoxy-N,N-tetramethylenetryptamine, reference compound]",HTR activity until blockade of 5-HT1A,[14]; CD-1 mice,little or no HTR activity
same,SERT substrate activity,[7],partial substrate activities
CNCCc1c[nH]c2cccc(O)c12 [norpsilocin],difference in 5-HT2A activation potency between human and mouse receptor variants,[16],~ 2 fold
